In patent US10357481B2 (MERCK SHARP & DOHME CORP., priority 2015, dated 2019):

Target: T1, human PDE2A1 (Homo sapiens, UniProt O00408)
T1 construct: GST; purchased BPS Bioscience (San Diego, Calif.) 60020; host or cells: insect cells
Test: IMAP FP PDE selectivity panel, human PDE2A1
Assay type: biochemical
Settings: Lab B; read-out: Human PDE2 Ki (nM) Lab B
Description: Selectivity for PDE2, as compared to other PDE families, was assessed using the IMAP® technology. Human PDE10A2 enzyme was prepared from cytosolic fractions of transiently transfected HEK cells.
Assays for PDE 1 through 11 were performed in parallel at room temperature in 384-well microtiter plates with an incubation volume of 20.2 μL. Solutions of test compounds were prepared in DMSO and serially diluted with DMSO to yield 30 μL of each of ten solutions differing by 3-fold in concentration, at 32 serial dilutions per plate. […] A Labcyte POD 810 (Labcyte, Sunnyvale, Calif.) was used to dispense 200 nL from each well of the titration plate to make eleven copies of the assay plate for each titration, one copy for each PDE enzyme. A solution of each enzyme (dilution from aliquots, sufficient to produce 20% substrate conversion) and a separate solution of FAM-labeled cAMP or FAM-labeled cGMP from Molecular Devices (Sunnyvale, Calif., product # R7506 or cGMP#R7508), at a final concentration of 50 nM were made in the assay buffer (10 mM Tris HCl, pH 7.2, 10 mM MgCl2, 0.05% NaN3 0.01% Tween-20, and 1 mM DTT). Note that the substrate for PDE2 is 50 nM FAM cAMP containing 1000 nM of cGMP. The enzyme and the substrate were then added to the assay plates in two consecutive additions of 10 μL and then shaken to mix. The reaction was allowed to proceed at room temperature for 60 minutes. A binding solution was then made from the kit components, comprised of 80% Solution A, 20% Solution B and binding reagent at a volume of 1/600 the total binding solution. The enzymatic reaction was stopped by addition of 60 μL of the binding solution to each well of the assay plate. The plates were sealed and shaken for 10 seconds. The plates were incubated at room temperature for one hour, then the parallel and perpendicular fluorescence was measured using a Tecan Genios Pro plate reader (Tecan, Switzerland). […] The intrinsic PDE2 inhibitory activity of a compound which may be used in accordance with the present invention may be determined by these assays.

T1 sequence (O00408 1-920 isoform O00408-2): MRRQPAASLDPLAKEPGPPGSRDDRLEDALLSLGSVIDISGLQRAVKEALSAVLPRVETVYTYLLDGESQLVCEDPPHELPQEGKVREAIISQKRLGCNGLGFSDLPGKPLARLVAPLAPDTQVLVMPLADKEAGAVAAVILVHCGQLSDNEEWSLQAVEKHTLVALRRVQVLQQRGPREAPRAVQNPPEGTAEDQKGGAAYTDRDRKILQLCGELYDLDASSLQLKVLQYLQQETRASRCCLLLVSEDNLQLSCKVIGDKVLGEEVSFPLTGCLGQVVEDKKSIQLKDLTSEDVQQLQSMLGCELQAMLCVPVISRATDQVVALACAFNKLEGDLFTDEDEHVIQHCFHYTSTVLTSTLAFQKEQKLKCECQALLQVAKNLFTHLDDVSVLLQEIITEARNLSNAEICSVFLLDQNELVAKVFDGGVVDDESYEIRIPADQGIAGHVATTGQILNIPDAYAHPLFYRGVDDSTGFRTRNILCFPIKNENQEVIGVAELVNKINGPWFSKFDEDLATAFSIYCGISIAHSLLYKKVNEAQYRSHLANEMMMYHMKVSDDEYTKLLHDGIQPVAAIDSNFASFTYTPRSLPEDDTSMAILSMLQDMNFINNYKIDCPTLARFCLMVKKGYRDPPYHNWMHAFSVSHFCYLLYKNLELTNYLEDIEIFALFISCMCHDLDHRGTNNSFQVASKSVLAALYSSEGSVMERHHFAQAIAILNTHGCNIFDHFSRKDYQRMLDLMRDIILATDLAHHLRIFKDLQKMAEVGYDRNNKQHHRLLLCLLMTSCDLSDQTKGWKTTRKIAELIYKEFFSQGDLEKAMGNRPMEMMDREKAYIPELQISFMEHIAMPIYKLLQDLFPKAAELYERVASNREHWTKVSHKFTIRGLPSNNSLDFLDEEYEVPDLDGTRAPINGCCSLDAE

Structure (SMILES): Cc1cc(N[C@H](c2ccc(OC(F)(F)F)c(F)c2)C(C)(C)O)n2ncnc2n1 (single isomer, unassigned) [Example 91]
- Ki: > 2960 nM

Structure (SMILES): Cc1cc(NC(c2ccc(C(F)(F)F)cc2Cl)C(C)(C)O)n2ncnc2n1 (single isomer, unassigned) [Example 104, (1S or R)-1-[2-Chloro-4-(trifluoromethyl)phenyl]-2-methyl-1-[(5-methyl[1,2,4]triazolo[1,5-a]pyrimidin-7-yl)amino]propan-2-ol]
- Ki: ~2780 nM

Structure (SMILES): Cc1cc(NC(c2ccc(C(F)(F)F)cc2Cl)C(C)(C)O)n2ncnc2n1 (single isomer, unassigned) [Example 105, (1R or S)-1-[2-Chloro-4-(trifluoromethyl)phenyl]-2-methyl-1-[(5-methyl[1,2,4]triazolo[1,5-a]pyrimidin-7-yl)amino]propan-2-ol]
- Ki: 38 nM

Structure (SMILES): Cc1cc(NC(c2ccc(C(C)(C)C)cc2)C(C)(C)O)n2ncnc2n1 (single isomer, unassigned) [Example 106]
- Ki: > 1240 nM

Structure (SMILES): Cc1cc(NC(c2ccc(C(C)(C)C)cc2)C(C)(C)O)n2ncnc2n1 (single isomer, unassigned) [Example 107]
- Ki: 13 nM

Structure (SMILES): Cc1cc(NC(c2ccc(C(F)F)cc2)C(C)(C)O)n2ncnc2n1 (single isomer, unassigned) [Example 108, (1S or R)-1-[4-(Difluoromethyl)phenyl]-2-methyl-1-[(5-methyl [1,2,4]triazolo [1,5-a]pyrimidin-7-yl)amino] propan-2-ol]
- Ki: 49 nM

Structure (SMILES): Cc1cc(NC(c2ccc(C(F)F)cc2)C(C)(C)O)n2ncnc2n1 (single isomer, unassigned) [Example 109, (1R or S)-1-[4-(Difluoromethyl)phenyl]-2-methyl-1-[(5-methyl [1,2,4]triazolo [1,5-a]pyrimidin-7-yl)amino] propan-2-ol]
- Ki: 905 nM

Structure (SMILES): Cc1cc(NC(c2ccc(OC(F)F)cc2)C(C)(C)O)n2ncnc2n1 (single isomer, unassigned) [Example 110, (1S or R)-1-[4-(Difluoro-methoxy)phenyl]-2-methyl-1-[(5-methyl[1,2,4]triazolo[1,5-a]pyrimidin-7-yl)amino]propan-2-ol]
- Ki: > 2960 nM

Structure (SMILES): Cc1cc(NC(c2ccc(OC(F)F)cc2)C(C)(C)O)n2ncnc2n1 (single isomer, unassigned) [Example 111, (1R or S)-1-[4-(Difluoro-methoxy)phenyl]-2-methyl-1-[(5-methyl[1,2,4]triazolo[1,5-a]pyrimidin-7-yl)amino]propan-2-ol]
- Ki: 26 nM

Structure (SMILES): Cc1cc(NC(c2ccc3c(c2)OC(F)(F)O3)C(C)(C)O)n2ncnc2n1 (single isomer, unassigned) [Example 112, (1S or R)-1-(2,2-Difluoro-1,3-benzodioxol-5-yl)-2-methyl-1-[(5-methyl[1,2,4]triazolo[1,5-a]pyrimidin-7-yl)amino]propan-2-ol]
- Ki: > 2960 nM

Structure (SMILES): Cc1cc(NC(c2ccc3c(c2)OC(F)(F)O3)C(C)(C)O)n2ncnc2n1 (single isomer, unassigned) [Example 113, (1R or S)-1-(2,2-Difluoro-1,3-benzodioxol-5-yl)-2-methyl-1-[(5-methyl[1,2,4]triazolo[1,5-a]pyrimidin-7-yl)amino]propan-2-ol]
- Ki: 93 nM

Structure (SMILES): Cc1cc(NC(c2ccc(C(F)(F)F)cc2F)C(C)(C)O)n2ncnc2n1 (single isomer, unassigned) [Example 114, (1S or R)-1-[2-Fluoro-4-(trifluoromethyl)phenyl]-2-methyl-1-[(5-methyl [1,2,4]triazolo [1,5-a]pyrimidin-7-yl)amino] propan-2-ol]
- Ki: > 2960 nM

Structure (SMILES): Cc1cc(NC(c2ccc(C(F)(F)F)cc2F)C(C)(C)O)n2ncnc2n1 (single isomer, unassigned) [Example 115, (1R or S)-1-[2-Fluoro-4-(trifluoromethyl)phenyl]-2-methyl-1-[(5-methyl [1,2,4]triazolo [1,5-a]pyrimidin-7-yl)amino] propan-2-ol]
- Ki: 23 nM

Structure (SMILES): Cc1cc(NC(c2ccc(S(F)(F)(F)(F)F)cc2)C(C)(C)O)n2ncnc2n1 (single isomer, unassigned) [Example 116, (1S or R)-2-Methyl-1-[(5-methyl[1,2,4]triazolo[1,5-a]pyrimidin-7-yl)amino]-1-[4-(pentafluoro-λ^6-sulfanyl)phenyl] propan-2-ol]
- Ki: > 2960 nM

Structure (SMILES): Cc1cc(NC(c2ccc(CC(F)(F)F)cc2)C(C)(C)O)n2ncnc2n1 (single isomer, unassigned) [Example 118, (1S or R)-2-Methyl-1-[(5-methyl [1,2,4]triazolo [1,5-a]pyrimidin-7-yl)amino]-1-[4-(2,2,2-trifluoroethyl)phenyl]propan-2-ol]
- Ki: > 2960 nM

Structure (SMILES): Cc1cc(NC(c2ccc(CC(F)(F)F)cc2)C(C)(C)O)n2ncnc2n1 (single isomer, unassigned) [Example 119, (1R or S)-2-Methyl-1-[(5-methyl [1,2,4]triazolo [1,5-a]pyrimidin-7-yl)amino]-1-[4-(2,2,2-trifluoroethyl)phenyl]propan-2-ol]
- Ki: 15 nM

Structure (SMILES): Cc1cc(NC(c2ccc(C3(C)CC3)cc2)C(C)(C)O)n2ncnc2n1 (single isomer, unassigned) [Example 120, (1S or R)-2-Methyl-1-[4-(1-methyl-cyclopropyl)phenyl]-1-[(5-methyl[1,2,4]triazolo[1,5-a]pyrimidin-7-yl)amino]propan-2-ol]
- Ki: > 2960 nM

Structure (SMILES): Cc1cc(NC(c2ccc(C3(C)CC3)cc2)C(C)(C)O)n2ncnc2n1 (single isomer, unassigned) [Example 121, (1R or S)-2-Methyl-1-[4-(1-methyl-cyclopropyl)phenyl]-1-[(5-methyl[1,2,4]triazolo[1,5-a]pyrimidin-7-yl)amino]propan-2-ol]
- Ki: 11 nM

Structure (SMILES): Cc1cc(NC(c2ccc3ccccc3c2)C(C)(C)O)n2ncnc2n1 (single isomer, unassigned) [Example 122, (1S or R)-2-Methyl-1-[(5-methyl [1,2,4]triazolo [1,5-a]pyrimidin-7-yl)amino]-1-naphthalen-2-yl propan-2-ol]
- Ki: > 2960 nM

Structure (SMILES): Cc1cc(NC(c2ccc3ccccc3c2)C(C)(C)O)n2ncnc2n1 (single isomer, unassigned) [Example 123, (1R or S)-2-Methyl-1-[(5-methyl [1,2,4]triazolo [1,5-a]pyrimidin-7-yl)amino]-1-naphthalen-2-yl propan-2-ol]
- Ki: 35 nM

Structure (SMILES): Cc1cc(NC(c2cc3ccccc3n2C)C(C)(C)O)n2ncnc2n1 (single isomer, unassigned) [Example 124, (1S or R)-2-Methyl-1-(1-methyl-1H-indol-2-yl)-1-[(5-methyl [1,2,4]triazolo [1,5-a]pyrimidin-7-yl)amino] propan-2-ol]
- Ki: 79 nM

Structure (SMILES): Cc1cc(NC(c2cc3ccccc3n2C)C(C)(C)O)n2ncnc2n1 (single isomer, unassigned) [Example 125, (1R or S)-2-Methyl-1-(1-methyl-1H-indol-2-yl)-1-[(5-methyl [1,2,4]triazolo [1,5-a]pyrimidin-7-yl)amino] propan-2-ol]
- Ki: > 2960 nM

Structure (SMILES): Cc1cc(NC(c2ccc(-c3ccccc3)cc2)C(C)(C)O)n2ncnc2n1 (single isomer, unassigned) [Example 126, (1S or R)-1-Biphenyl-4-yl-2-methyl-1-[(5-methyl[1,2,4]triazolo[1,5-a]pyrimidin-7-yl)amino]propan-2-ol]
- Ki: > 2960 nM

Structure (SMILES): Cc1cc(NC(c2ccc(-c3ccccc3)cc2)C(C)(C)O)n2ncnc2n1 (single isomer, unassigned) [Example 127, (1R or S)-1-Biphenyl-4-yl-2-methyl-1-[(5-methyl[1,2,4]triazolo[1,5-a]pyrimidin-7-yl)amino]propan-2-ol]
- Ki: 21 nM

Structure (SMILES): Cc1cc(NC(c2ccc(OC(F)(F)F)cc2C)C(C)(C)O)n2ncnc2n1 (single isomer, unassigned) [Example 128, (1S or R)-2-Methyl-1-[(5-methyl[1,2,4]triazolo[1,5-a]pyrimidin-7-yl)amino]-1-[2-methyl-4-(trifluoromethoxy)phenyl]propan-2-ol]
- Ki: > 2960 nM

Structure (SMILES): Cc1cc(NC(c2ccc(OC(F)(F)F)cc2C)C(C)(C)O)n2ncnc2n1 (single isomer, unassigned) [Example 129, (1R or S)-2-Methyl-1-[(5-methyl[1,2,4]triazolo[1,5-a]pyrimidin-7-yl)amino]-1-[2-methyl-4-(trifluoromethoxy)phenyl]propan-2-ol]
- Ki: 21 nM

Structure (SMILES): Cc1cc(NC(c2ccc(OC(F)(F)F)c(F)c2)C(C)(C)O)n2nc(C)nc2n1 (single isomer, unassigned) [Example 132, (1S or R)-1-[(2,5-Dimethyl[1,2,4]triazolo[1,5-a]pyrimidin-7-yl)amino]-1-[3-fluoro-4-(trifluoromethoxy)phenyl]-2-methylpropan-2-ol]
- Ki: > 2960 nM
